Test systems include NCI-H226 lung; MALME-3M melanoma; SW-620 colon; NCI-H23 lung; MDA-MB-231 breast; MDA-MB-435; HCC-2998 colon; OVCAR-5 ovarian; MCF7 breast; U251 CNS.
What all share (assay): NCI tumour cell line growth inhibition, 48 h

Molecules are shown by their SMILES.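 Grown in 96-well plates, cells were treated for 48 hours with each compound at five concentrations. Insufficient inhibition: endpoint recorded as highest concentration tested. Abbreviation: GI50, concentration required for 50% inhibition of growth. TGI marks complete inhibition of growth.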

For the compound `COc1ccc(/C=C2\CC(C)CC3C2=NN(C(C)=O)C3c2ccc(OC)cc2)cc1` (centres undefined), the GI50 in the assay on NCI-H226 lung is 16.5 µM; with MALME-3M melanoma, 17.8 µM; with SW-620 colon it was 21.8 µM; in the assay on NCI-H23 lung it was 19.6 µM; in the assay with MDA-MB-231 breast it was 16.4 µM; in the assay on MDA-MB-435, 19.9 µM. Besides, the GI50 with HCC-2998 colon was 17.5 µM; with OVCAR-5 ovarian it was 21.6 µM; with MCF7 breast, 20 µM; in the assay with U251 CNS, 14.4 µM. The TGI turned out to be 39.1 µM in the assay on NCI-H226 lung; 37.9 µM in the assay on MALME-3M melanoma; 59 µM in the assay on SW-620 colon; 45.2 µM in the assay with NCI-H23 lung; 35.7 µM with MDA-MB-231 breast; 49.1 µM with MDA-MB-435. Besides, the TGI in the assay on HCC-2998 colon was 40 µM; with OVCAR-5 ovarian, 48.2 µM; with MCF7 breast, 63.3 µM; in the assay with U251 CNS, 31 µM.
As to `Cc1cc(O)c(C2=NN(c3ccc(S(N)(=O)=O)cc3)C(c3ccc(N(C)C)cc3)C2)c(C)c1Cl` (centres undefined), the GI50 is 13.4 µM in the assay on NCI-H226 lung; 14.8 µM with MALME-3M melanoma; 18.4 µM with SW-620 colon; 17.7 µM in the assay with NCI-H23 lung; 11 µM in the assay on MDA-MB-231 breast; 13.4 µM in the assay with MDA-MB-435. For the same compound, the GI50 was 14.8 µM in the assay on HCC-2998 colon, 19.4 µM in the assay with OVCAR-5 ovarian, 6.55 µM in the assay with MCF7 breast and 11.8 µM in the assay on U251 CNS. Moreover, the TGI in the assay on NCI-H226 lung is 29.4 µM; in the assay with MALME-3M melanoma, 32.7 µM; in the assay on SW-620 colon, 37.8 µM; in the assay on NCI-H23 lung, 43.7 µM; in the assay on MDA-MB-231 breast, 27.2 µM; in the assay on MDA-MB-435 it was 31 µM. The TGI in the assay on HCC-2998 colon was determined as 30.9 µM; in the assay with OVCAR-5 ovarian, 38.1 µM; in the assay on MCF7 breast it was 24.2 µM; in the assay on U251 CNS, 26.9 µM.
Turning to `O=C(O)CCC/C=C\C[C@H]1C=CC(=O)/C1=C/C[C@@H](O)CCc1cccc(C(F)(F)F)c1`, the GI50 in the assay on MALME-3M melanoma was 4.75 µM; with SW-620 colon it was 3.1 µM; in the assay on NCI-H23 lung, 2.25 µM; in the assay on MDA-MB-231 breast, 5.19 µM; in the assay on MDA-MB-435 it was 1.82 µM; in the assay on HCC-2998 colon, 1.87 µM. Further, the GI50 with OVCAR-5 ovarian was 4.15 µM; in the assay on MCF7 breast, 0.444 µM; in the assay on U251 CNS it was 1.55 µM. In addition, the TGI turned out to be 19.3 µM in the assay on MALME-3M melanoma; 10.1 µM with SW-620 colon; 6.37 µM in the assay on NCI-H23 lung; 21.9 µM in the assay on MDA-MB-231 breast; 4.94 µM in the assay with MDA-MB-435; 3.5 µM in the assay on HCC-2998 colon. Moreover, the TGI in the assay on OVCAR-5 ovarian is 11.8 µM; in the assay with MCF7 breast it was 12.4 µM; in the assay on U251 CNS it was 3.45 µM.
For the compound `Cc1nc(CN2CCCCC2)c(O)c(=O)[nH]1`, the TGI with NCI-H226 lung, in the assay on MALME-3M melanoma, with SW-620 colon, with NCI-H23 lung, in the assay with MDA-MB-231 breast and in the assay on MDA-MB-435 was > 100 µM throughout. In addition, the TGI with OVCAR-5 ovarian, in the assay with MCF7 breast and in the assay with U251 CNS was > 100 µM throughout.
As for `Nc1nc2cc3ccc(C4CC(O)C(CO)O4)cc3cc2c(=O)[nH]1` (centres undefined), the GI50 in the assay on NCI-H226 lung, in the assay on SW-620 colon, in the assay on NCI-H23 lung, in the assay with MDA-MB-231 breast, in the assay with MDA-MB-435 and in the assay with HCC-2998 colon was > 100 µM in each case. For the same compound, the GI50 in the assay on OVCAR-5 ovarian, in the assay with MCF7 breast and in the assay on U251 CNS was > 100 µM in each case. Besides, the TGI in the assay with NCI-H226 lung, in the assay on SW-620 colon, in the assay with NCI-H23 lung, in the assay on MDA-MB-231 breast, in the assay on MDA-MB-435 and with HCC-2998 colon was > 100 µM throughout. In addition, the TGI in the assay on OVCAR-5 ovarian, in the assay on MCF7 breast and in the assay with U251 CNS was > 100 µM each time.
On to `CCN(CC)c1ccc2c(c1)Oc1nc(N)c(C#N)c(N)c1C2Sc1ccc(OC)cc1` (centres undefined), for which the GI50 in the assay on NCI-H226 lung is 1.82 µM; with MALME-3M melanoma, 1.82 µM; in the assay with SW-620 colon, 1.9 µM; in the assay on NCI-H23 lung, 1.52 µM; in the assay with MDA-MB-231 breast it was 1.6 µM; with MDA-MB-435, 1.79 µM. Also, the GI50 was 1.81 µM in the assay on HCC-2998 colon, 2.04 µM in the assay on OVCAR-5 ovarian and 1.42 µM with U251 CNS. Besides, the TGI in the assay on NCI-H226 lung is 3.55 µM; with MALME-3M melanoma it was 3.45 µM; in the assay with SW-620 colon, 3.62 µM; in the assay on NCI-H23 lung, 3.02 µM; in the assay on MDA-MB-231 breast it was 3.13 µM; with MDA-MB-435, 3.4 µM. Further, the TGI in the assay with HCC-2998 colon worked out at 3.43 µM; in the assay on OVCAR-5 ovarian it was 4.6 µM; in the assay with U251 CNS, 2.81 µM.
In the case of `O=C(/C=N/O)Nc1cc(Cl)c(Cl)cc1Cl`, the TGI was > 100 µM with MALME-3M melanoma; > 100 µM in the assay on SW-620 colon; 86.6 µM in the assay with NCI-H23 lung; 60 µM with MDA-MB-231 breast; 67 µM in the assay with MDA-MB-435; > 100 µM in the assay with HCC-2998 colon. Further, the TGI with OVCAR-5 ovarian, in the assay with MCF7 breast and in the assay on U251 CNS was > 100 µM each time.
As for `CCN1C2=NCCN2S(=O)(=O)c2ccccc21`, the TGI with NCI-H226 lung, in the assay on SW-620 colon, with NCI-H23 lung, in the assay on MDA-MB-231 breast, in the assay with MDA-MB-435 and in the assay with HCC-2998 colon was > 100 µM each time. Also, the TGI in the assay with OVCAR-5 ovarian, with MCF7 breast and with U251 CNS was > 100 µM throughout.
Take `COc1cc2c3c(n(CCCNCCCNCCCNCCCN)c(=O)c2cc1OC)-c1cc2c(cc1C3=O)OCO2`: the GI50 is 2.92 µM in the assay with NCI-H226 lung; 0.318 µM in the assay on MALME-3M melanoma; 2.18 µM in the assay on SW-620 colon; 1.5 µM with NCI-H23 lung; 2.43 µM in the assay on MDA-MB-231 breast; 1.45 µM in the assay on MDA-MB-435. Further, the figures for the GI50 in the assay on OVCAR-5 ovarian, in the assay on MCF7 breast and with U251 CNS were 1.76 µM, 0.712 µM and 1.33 µM, respectively. The TGI worked out at 7.26 µM in the assay with NCI-H226 lung; 1.29 µM in the assay on MALME-3M melanoma; 13.9 µM with SW-620 colon; 3.86 µM in the assay on NCI-H23 lung; 7.79 µM with MDA-MB-231 breast; 3.18 µM in the assay with MDA-MB-435. Besides, the TGI with OVCAR-5 ovarian amounted to 5.63 µM; in the assay with MCF7 breast, 2.47 µM; with U251 CNS it was 3.81 µM.

The values are drawn from PubChem BioAssay (NCI).
